Assay results from patent publication US12049450B2, “Pyridyloxy-carboxylate derivative and preparation method therefor, herbicidal composition, and use” (Qingdao Kingagroot Chemical Compound Co., Ltd., priority 2018, dated 2024).

How the values were obtained:
Assay in all cases: Post-emergence test experiment (greenhouse pot, spray at 2-3 leaf stage)
Assay type in all cases: in vivo
Conditions in all cases: 1000 g/ha; post-emergence spray at 2-3 leaf stage; assessed after 3 weeks; fresh weight inhibition rate
[1] = tested on: Echinochloa crusgalli
Excerpt: (§1) The activity level standard of harmful plants destruction (i. e. growth inhibition rate) is as follows: • Level 5: the growth inhibition rate is greater than 85%; • Level 4: the growth inhibition rate is equal to or greater than 60% and less than 85%; • Level 3: the growth inhibition rate is equal to or greater than 40% and less than 60%; • Level 2: the growth inhibition rate is equal to or greater than 20% and less than 40%; • Level 1: the growth inhibition rate is equal to or greater than 5% and less than 20%; • Level 0: the growth inhibition rate is less than 5%;
(§2) The above described growth inhibition rate is fresh weight inhibition rate.
(§3) Post-emergence test experiment: Monocotyledonous and dicotyledonous weed seeds and main crop seeds (i. e. wheat, corn, rice, soybean, cotton, oilseed, millet and sorghum.) were put into a plastic pot loaded with soil. Then covered with 0.5-2 cm soil, the seeds were allowed to grow in good greenhouse environment. The test plants were treated at 2-3 leaf stage 2 weeks after sowing. The test compounds of the invention were dissolved with acetone respectively, then added with tween-80, and using 1.5 liters per hectare of an emulsible concentrate of methyl oleate as a synergist, and diluted by certain amount of water to certain concentration. The solution was sprayed to the plants with a sprayer. Then the plants were cultured for 3 weeks in the greenhouse, and the experiment result of weed controlling effect after 3 weeks was listed in tables 3-4.

[2] = tested on: Monochoria vaginalis
Excerpt: as §1, §2, §3

[3] = tested on: Abutilon theophrasti
Excerpt: as §1, §2, §3

[4] = tested on: Digitaria sanguinalis
Excerpt: as §1, §2, §3

[5] = tested on: Galium spurium
Excerpt: as §1, §2, §3

Row | SMILES | Activity level (growth inhibition rate) Echinochloa crusgalli [1] | Activity level (growth inhibition rate) Monochoria Vaginalis [2] | Activity level (growth inhibition rate) Abutilon theophrasti [3] | Activity level (growth inhibition rate) Digitaria sanguinalis [4] | Activity level (growth inhibition rate) Galium spurium [5]
1 | CCOC(=O)Nc1cccc(CSC(=O)C(C)Oc2nc(F)c(Cl)c(N)c2Cl)c1 (racemic) [Compound 109] | 5 (Level 5: the growth inhibition rate is greater than 85%) | 5 (Level 5: the growth inhibition rate is greater than 85%) | 5 (Level 5: the growth inhibition rate is greater than 85%) | 5 (Level 5: the growth inhibition rate is greater than 85%) | 5 (Level 5: the growth inhibition rate is greater than 85%)
2 | COCOc1cccc(C)c1COC(=O)C(C)Oc1nc(F)c(Cl)c(N)c1Cl (racemic) [Compound 110] | 5 (Level 5: the growth inhibition rate is greater than 85%) | 5 (Level 5: the growth inhibition rate is greater than 85%) | 5 (Level 5: the growth inhibition rate is greater than 85%) | 5 (Level 5: the growth inhibition rate is greater than 85%) | 5 (Level 5: the growth inhibition rate is greater than 85%)
3 | Nc1c(Cl)c(F)nc(OC(C(=O)OCc2ccccc2)[N+](=O)[O-])c1Cl (stereo not shown) [Compound 49] |  | 5 (Level 5: the growth inhibition rate is greater than 85%) | 5 (Level 5: the growth inhibition rate is greater than 85%) |  | 5 (Level 5: the growth inhibition rate is greater than 85%)
4 | Nc1c(Cl)c(F)nc(OC(C=O)C(=O)OCc2ccccc2)c1Cl (stereo not shown) [Compound 51] |  | 5 (Level 5: the growth inhibition rate is greater than 85%) | 5 (Level 5: the growth inhibition rate is greater than 85%) |  | 5 (Level 5: the growth inhibition rate is greater than 85%)
5 | COC(=O)C(Oc1nc(F)c(Cl)c(N)c1Cl)C(=O)OCc1ccccc1 (stereo not shown) [Compound 52] |  | 5 (Level 5: the growth inhibition rate is greater than 85%) | 5 (Level 5: the growth inhibition rate is greater than 85%) |  | 5 (Level 5: the growth inhibition rate is greater than 85%)
6 | Nc1c(Cl)c(F)nc(OC(C(=O)SCc2ccccc2)c2ccoc2)c1Cl (stereo not shown) [Compound 55] |  | 5 (Level 5: the growth inhibition rate is greater than 85%) | 5 (Level 5: the growth inhibition rate is greater than 85%) |  | 5 (Level 5: the growth inhibition rate is greater than 85%)
7 | Nc1c(Cl)c(F)nc(OC(C(=O)OCc2ccccc2)c2cscn2)c1Cl (stereo not shown) [Compound 56] |  | 5 (Level 5: the growth inhibition rate is greater than 85%) | 5 (Level 5: the growth inhibition rate is greater than 85%) |  | 5 (Level 5: the growth inhibition rate is greater than 85%)
8 | CCn1nccc1C(Oc1nc(F)c(Cl)c(N)c1Cl)C(=O)OCc1ccccc1 (stereo not shown) [Compound 57] |  | 5 (Level 5: the growth inhibition rate is greater than 85%) | 5 (Level 5: the growth inhibition rate is greater than 85%) |  | 5 (Level 5: the growth inhibition rate is greater than 85%)
9 | Cc1nn(C)cc1C(Oc1nc(F)c(Cl)c(N)c1Cl)C(=O)SCc1ccccc1 (stereo not shown) [Compound 58] |  | 5 (Level 5: the growth inhibition rate is greater than 85%) | 5 (Level 5: the growth inhibition rate is greater than 85%) |  | 5 (Level 5: the growth inhibition rate is greater than 85%)
10 | Nc1c(Cl)c(F)nc(OC(C(=O)OCc2ccccc2)c2ccn(C(F)F)n2)c1Cl (stereo not shown) [Compound 59] |  | 5 (Level 5: the growth inhibition rate is greater than 85%) | 5 (Level 5: the growth inhibition rate is greater than 85%) |  | 5 (Level 5: the growth inhibition rate is greater than 85%)
11 | Nc1c(Cl)c(F)nc(OC(C(=O)OCc2ccccc2)c2ccccc2)c1Cl (stereo not shown) [Compound 60] |  | 5 (Level 5: the growth inhibition rate is greater than 85%) | 5 (Level 5: the growth inhibition rate is greater than 85%) |  | 5 (Level 5: the growth inhibition rate is greater than 85%)
12 | Nc1c(Cl)c(F)nc(OC(C(=O)SCc2ccccc2)c2ccc(C(F)(F)F)cc2)c1Cl (stereo not shown) [Compound 61] |  | 5 (Level 5: the growth inhibition rate is greater than 85%) | 5 (Level 5: the growth inhibition rate is greater than 85%) |  | 5 (Level 5: the growth inhibition rate is greater than 85%)
13 | Nc1c(Cl)c(F)nc(OC(C(=O)OCc2ccccc2)c2cccc(Cl)c2)c1Cl (stereo not shown) [Compound 62] |  | 5 (Level 5: the growth inhibition rate is greater than 85%) | 5 (Level 5: the growth inhibition rate is greater than 85%) |  | 5 (Level 5: the growth inhibition rate is greater than 85%)
14 | COc1ccc(C(Oc2nc(F)c(Cl)c(N)c2Cl)C(=O)OCc2ccccc2)c(C)c1 (stereo not shown) [Compound 63] |  | 5 (Level 5: the growth inhibition rate is greater than 85%) | 5 (Level 5: the growth inhibition rate is greater than 85%) |  | 5 (Level 5: the growth inhibition rate is greater than 85%)
15 | Nc1c(Cl)c(F)nc(OC(C(=O)OCc2ccccc2)c2cccnc2)c1Cl (stereo not shown) [Compound 64] |  | 5 (Level 5: the growth inhibition rate is greater than 85%) | 5 (Level 5: the growth inhibition rate is greater than 85%) |  | 5 (Level 5: the growth inhibition rate is greater than 85%)
16 | Nc1c(Cl)c(F)nc(OC(C(=O)SCc2ccccc2)c2cncnc2)c1Cl (stereo not shown) [Compound 65] |  | 5 (Level 5: the growth inhibition rate is greater than 85%) | 5 (Level 5: the growth inhibition rate is greater than 85%) |  | 5 (Level 5: the growth inhibition rate is greater than 85%)
17 | Nc1c(Cl)c(F)nc(OC(C(=O)OCc2ccccc2)c2ccc3ccccc3c2)c1Cl (stereo not shown) [Compound 66] |  | 5 (Level 5: the growth inhibition rate is greater than 85%) | 5 (Level 5: the growth inhibition rate is greater than 85%) |  | 5 (Level 5: the growth inhibition rate is greater than 85%)
